According to publication PMC3271436 (Osteoarthritis and Cartilage, 2008):

Key:
Type in all cases: biochemical
[1] = molecular target: T1, purified IGFBP-5 protease from human osteoarthritic joint fluid (complement 1s) (Homo sapiens, UniProt P09871); assay: IGFBP-5 cleavage by protease purified from joint fluid
T1 sequence (P09871 16-688): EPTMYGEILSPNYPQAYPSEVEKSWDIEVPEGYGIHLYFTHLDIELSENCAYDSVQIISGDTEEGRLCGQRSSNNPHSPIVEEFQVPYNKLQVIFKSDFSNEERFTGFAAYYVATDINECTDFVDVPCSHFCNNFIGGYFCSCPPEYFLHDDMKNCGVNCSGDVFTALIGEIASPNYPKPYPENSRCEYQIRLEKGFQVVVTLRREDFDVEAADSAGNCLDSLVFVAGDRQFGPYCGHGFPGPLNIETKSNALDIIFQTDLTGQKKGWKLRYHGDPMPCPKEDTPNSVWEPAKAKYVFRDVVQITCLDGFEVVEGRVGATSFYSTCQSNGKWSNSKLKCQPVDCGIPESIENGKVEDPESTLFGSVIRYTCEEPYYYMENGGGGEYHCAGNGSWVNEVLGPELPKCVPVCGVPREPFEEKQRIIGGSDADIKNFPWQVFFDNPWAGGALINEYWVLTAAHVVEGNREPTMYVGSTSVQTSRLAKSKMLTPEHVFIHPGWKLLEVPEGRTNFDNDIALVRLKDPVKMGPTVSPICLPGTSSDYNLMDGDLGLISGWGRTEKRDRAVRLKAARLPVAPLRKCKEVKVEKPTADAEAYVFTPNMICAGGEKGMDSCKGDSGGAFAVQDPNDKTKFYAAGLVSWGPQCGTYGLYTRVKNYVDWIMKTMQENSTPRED

[2] = molecular target: T2, IGFBP-5 protease activity in human osteoarthritic joint fluid (Homo sapiens, UniProt P09871)
T2 sequence (P09871 16-688): T1 sequence (P09871 16-688)

[3] = molecular target: T3, purified C1s (Calbiochem) (Homo sapiens, UniProt P09871); assay: C1s chromogenic assay with purified commercial C1s, substrate S-2765
T3 sequence (P09871 16-688): T1 sequence (P09871 16-688)

Compound: c1cnc2c(c1)ccc1cccnc12 [1,10-phenanthroline]
- Purified Protease IC50 ([1]; protease purified through Con-A step, 118 ng IGFBP-5, 16 h at 37°C): No inhibition
- Human Joint Fluid IC50 ([2]; crude joint fluid, 118 ng IGFBP-5, 16 h at 37°C): No Inhibition

Compound: N=C(N)c1ccc2cc(OC(=O)c3ccc(N=C(N)N)cc3)ccc2c1 [FUT175]
- C1s inhibition in words [3]: potent C1s inhibitor
- IC50 [3]: 0.07 µM
- IC50 [1]: 1 µM
- activity in words against the purified joint fluid preparation ([1]; purified joint fluid preparation): most active
- activity in words against IGFBP-5 protease activity in crude joint fluid ([2]; 0.1 to 360 uM): most active
